From patent US20240191226A1, “SMAD2 INHIBITION IN BETA CELLS FOR TYPE 2 DIABETES THERAPY” (University of Pittsburgh - Of the Commonwealth System of …, priority 2021, published 2024)

Columns and labels:
[1] = system: smad2; assay: AAV6-GFP-U6-mSMAD2_shRNA treatment of Min6 cells, Western blot and RT-PCR; assay type: cell-based
Procedure: (§1) FIGS. 19A-19C. AAV6-GFP-U6-mSMAD2_shRNA treatment in vitro blocks smad2 expression in MIN6 and Beta-TC cell lines. […] Phospho smad2 expression is nearly absent in Min6 cells after AAV6-GFP-U6-mSMAD2_shRNA treatment (B). […] Similar experiments can be performed in human beta cell lines (EndoC-bH5, Human Cell Design) and primary human beta cells.
(§2) FIGS. 19A-19C show results from experiments where Min6 cells or beta-TC cells were treated with AAV6-GFP-U6-mSMAD2_shRNA for three days. A lysate was prepared from total or sorted cells. RT-PCR, and Western blot for Smad2, phospho Smad2 and Beta-actin was performed. […] Phospho smad2 expression is nearly absent in Min6 cells after AAV6-GFP-U6-mSMAD2_shRNA treatment (FIG. 19B).

[2] = system: smad2; assay: AAV6-GFP-U6-mSMAD2_shRNA treatment of beta-TC cells, Western blot; assay type: cell-based; details: beta-TC cells sorted after transfection, treated for three days, Western blot (FIG. 19A)
Procedure: as §1, §2

AAV6-GFP-U6-mSMAD2_shRNA: AAV6 construct with smad2 shRNA sequence SEQ ID NO: 34, targeting sequence SEQ ID NO: 35 (DNA CCGGTGGTGTTCAATCGCATACTATCTCGAGATAGTATGCGATTGAACACCATTTTTG)
smad2 expression ([1]; Min6 cells sorted after transfection, treated for three days, Western blot (FIG. 19A)): near complete ablation
Phospho smad2 expression ([1]; Min6 cells, treated for three days, Western blot (FIG. 19B)): nearly absent
RT-PCR quantification of MIN6 mRNA (smad2) ([1]; sorted MIN6 cells, treated for three days (FIG. 19C)): complete absence
smad2 expression [2]: near complete ablation
